Source: ChEMBL document CHEMBL1132769, “Diphenyl sulfoxides as selective antagonists of the muscarinic M2 receptor” (Bioorg Med Chem Lett, 2000)
Where “and” joins values, the source holds several entries; their conditions need not be identical. Equal entries are not always repeated.

What was measured:
[1] = molecular target: T1, Muscarinic acetylcholine receptor M1 (Homo sapiens, UniProt P11229); experiment: Binding affinity towards the cloned human Muscarinic acetylcholine receptor M1
T1 sequence (P11229 whole entry): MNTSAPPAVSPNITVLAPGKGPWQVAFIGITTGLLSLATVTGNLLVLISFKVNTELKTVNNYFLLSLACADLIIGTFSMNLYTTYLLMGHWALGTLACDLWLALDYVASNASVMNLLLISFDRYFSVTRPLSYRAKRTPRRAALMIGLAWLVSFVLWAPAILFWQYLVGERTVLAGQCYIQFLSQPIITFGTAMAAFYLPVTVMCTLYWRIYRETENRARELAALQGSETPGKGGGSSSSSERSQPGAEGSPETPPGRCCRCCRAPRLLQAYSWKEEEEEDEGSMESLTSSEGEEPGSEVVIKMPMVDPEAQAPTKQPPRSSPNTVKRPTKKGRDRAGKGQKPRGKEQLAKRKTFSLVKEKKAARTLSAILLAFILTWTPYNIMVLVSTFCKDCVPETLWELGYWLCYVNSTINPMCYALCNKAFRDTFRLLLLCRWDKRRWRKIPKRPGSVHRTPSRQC

[2] = molecular target: T2, Muscarinic acetylcholine receptor M2 (Homo sapiens, UniProt P08172); experiment: Binding affinity towards the cloned human Muscarinic acetylcholine receptor M2
T2 sequence (P08172 whole entry): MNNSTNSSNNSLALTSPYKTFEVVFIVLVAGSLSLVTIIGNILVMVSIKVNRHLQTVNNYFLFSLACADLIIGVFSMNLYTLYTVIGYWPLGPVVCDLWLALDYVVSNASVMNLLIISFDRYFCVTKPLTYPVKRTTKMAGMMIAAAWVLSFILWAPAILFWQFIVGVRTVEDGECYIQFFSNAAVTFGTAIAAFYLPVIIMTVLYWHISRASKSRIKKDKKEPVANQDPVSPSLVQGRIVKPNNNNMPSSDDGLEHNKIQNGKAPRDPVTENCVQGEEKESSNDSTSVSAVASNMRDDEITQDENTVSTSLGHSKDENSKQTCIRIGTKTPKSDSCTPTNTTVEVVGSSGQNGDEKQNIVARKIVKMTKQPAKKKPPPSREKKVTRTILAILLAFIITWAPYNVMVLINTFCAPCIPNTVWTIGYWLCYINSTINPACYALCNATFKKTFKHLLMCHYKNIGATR

[3] = molecular target: Muscarinic acetylcholine receptors; M1 & M2 (Homo sapiens) (UniProt P11229+P08172); experiment: Ratio of binding affinity to M1 receptor compared to that of M2 receptor; type: protein assay

Row | Ki [1] | Ki [2] | Ratio [3] | SMILES
1 | 4770 nM | 4600 nM | 1 | CC(c1ccc(S(=O)(=O)c2ccccc2)cc1)N1CCN(c2ccccc2)CC1 (stereo unspecified)
2 |  |  | 6 | COc1ccc([S+]([O-])c2ccc(C(C)N3CCN(C4CCCCC4)CC3)cc2)cc1 (stereo unspecified)
3 |  | 2.7 nM |  | COc1ccc([S@@+]([O-])c2ccc(C(C#N)N3CCN(C4CCCCC4)CC3)cc2)cc1 (stereo in doubt; 1) [listing 1 of 2 here]
4 | 1.3 nM | 0.2 nM | 6 | CC(c1ccc(S(=O)(=O)c2ccccc2)cc1)N1CCN(C2CCCCC2)CC1 (stereo unspecified)
5 | 106 nM | 36 nM | 3 | CC(c1ccc(S(=O)(=O)c2ccc(S(C)(=O)=O)cc2)cc1)N1CCN(C2CCCCC2)CC1 (stereo unspecified)
6 |  |  | 40 | COc1ccc([S@@+]([O-])c2ccc(C(C#N)N3CCN(C4CCCCC4)CC3)cc2)cc1 (stereo in doubt; 1) [listing 2 of 2 here]
7 | 117 nM | 8 nM | 14 | COc1ccc([S+]([O-])c2ccc(C(C#N)N3CCN(C4CCCCC4)CC3)cc2)cc1 (stereo unspecified)
8 | 52 nM | 17 nM | 3 | COc1ccc([S+]([O-])c2ccc(C(C3CCCCC3)N3CCN(C4CCCCC4)CC3)cc2)cc1 (stereo unspecified)
9 | 200 nM | 135 nM | 1.5 | CCOC(=O)N1CCN(C(C)c2ccc(S(=O)(=O)c3ccccc3)cc2)CC1 (stereo unspecified)
10 | 85 nM | 33 nM | 2.6 | CC(c1ccc(S(=O)(=O)c2ccc(C(C)(C)C)cc2)cc1)N1CCN(C2CCCCC2)CC1 (stereo unspecified)
11 | 77 nM | 26 nM | 3 | CC(c1ccc(S(=O)(=O)c2ccccc2)cc1)N1CCN(CCO)CC1 (stereo unspecified)
12 | 83 nM and 180 nM | 3.8 nM and 20 nM |  | COc1ccc([S@@+]([O-])c2ccc(C(C#N)N3CCN(C4CCCCC4)CC3)cc2)cc1 (single isomer, unassigned; form 2) [listing 1 of 2 here]
13 | 23 nM | 5 nM | 5 | COc1ccc([S+]([O-])c2ccc(C(N3CCN(C4CCCCC4)CC3)C(F)(F)F)cc2)cc1 (stereo unspecified)
14 | 6 nM | 0.6 nM | 10 | COc1ccc(S(=O)(=O)c2ccc(C(C)N3CCN(C4CCCCC4)CC3)cc2)cc1 (stereo unspecified)
15 | 140 nM and 253 nM | 9 nM and 17 nM |  | COc1ccc([S@@+]([O-])c2ccc(C(C#N)N3CCN(C4CCCCC4)CC3)cc2)cc1 (single isomer, unassigned; form 1) [listing 1 of 2 here]
16 |  |  | 15 | COc1ccc([S@@+]([O-])c2ccc(C(C#N)N3CCN(C4CCCCC4)CC3)cc2)cc1 (single isomer, unassigned; form 1) [listing 2 of 2 here]
17 |  |  | 22 and 9 | COc1ccc([S@@+]([O-])c2ccc(C(C#N)N3CCN(C4CCCCC4)CC3)cc2)cc1 (single isomer, unassigned; form 2) [listing 2 of 2 here]
18 | 242 nM | 40 nM | 6 | COc1ccc([S+]([O-])c2ccc(C(C(N)=O)N3CCN(C4CCCCC4)CC3)cc2)cc1 (stereo unspecified)
19 | 11 nM | 0.8 nM | 14 | Cc1ccc(S(=O)(=O)c2ccc(C(C)N3CCN(C4CCCCC4)CC3)cc2)cc1 (stereo unspecified)

Row | SMILES | Ki [1] | Ki [2] | Ratio [3]
20 | CC(c1ccc(S(=O)(=O)c2ccccc2)cc1)N1CCNCC1 (stereo unspecified) | 57 nM | 37 nM | 1.6
21 | CC(c1ccc(S(=O)(=O)c2ccccc2)cc1)N1CCN(C)CC1 (stereo unspecified) | 96 nM | 34 nM | 3
